Laboratory results published in US7981893B2, “Heteroaryl compounds, compositions thereof, and methods of treatment therewith” (Signal Pharmaceuticals, LLC, priority 2006, dated 2011).

Columns and labels:
Format in all cases: biochemical
PKCθ = biological target: T1, PKCθ (Homo sapiens, UniProt Q04759); assay: PKCθ IMAP Assay; conditions: IMAP fluorescence polarization screening assay, 35 μM ATP
T1 construct: purchased Invitrogen
Outline: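 IMAP fluorescence polarization with 0.5 nM PKCθ, 100 nM FAM-AKRRRLSSLRA, 35 μM ATP, 2.5% DMSO, pH 7.6 HEPES with phosphatidyl serine/diacylglycerol. Compound pre-incubated with enzyme 45 min; reaction 60 min, then binding beads ≥30 min before FP read.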

Syk = biological target: T2, Syk (Homo sapiens, UniProt P43405); assay: Syk HTRF Assay; conditions: HTRF screening assay
T2 construct: purchased Carna Biosciences 08-176
Protocol: 5 μl/well DMSO is added to Column 2 Wells A-O and 29.5 μl to well P2 of Greiner 384-well polypropylene plate. 20 μl/well DMSO is added to Columns 1 and 3-12.
25 mM compound solutions are prepared by the addition of 25 μl of 30 mM compound to Column 2 and 0.5 μl 30 mM reference control to well P2.
Serial dilution is then performed by the following steps: (i) compounds in Column 2 are mixed by pipetting 20 μl up and down 6×; (ii) 10 μl/well compounds in DMSO are transferred from one column to the next column for Columns 2-11; (iii) wells are mixed by pipetting 20 μl up and down 6×; (iv) tips washed 3×25 μl DMSO, 2×25 μl next DMSO.
The following buffers are prepared:
Dilution Buffer: 50 mM HEPES pH 7.6; 1 mM DTT; 10 mM MgCl2; 0.01% Triton X100; 0.01% BSA; 0.1 mM EDTA.
Enzyme Mix in Dilution Buffer: 8.621 ng/ml Syk (Carna Biosciences 08-176).
Start Mix in Dilution Buffer: 87.5 μM ATP; 80 nM Substrate Peptide (American Peptide Company 332722).
14.5 μl/well Enzyme Mix or Dilution Buffer (Background Controls) is added to Costar 384-well black plates.
Compound addition and mixture is performed by the following steps: (i) 0.5 μl/well DMSO/compounds in DMSO transferred from Greiner 384-well polypropylene plate to left half of assay plate containing 14.5 μl/well Enzyme Mix and Dilution Buffer; (ii) Mix by pipetting 10 μl up and down 4×; (iii) tips are washed 4×10 μl in DMSO, 2×20 μl in other DMSO; (iv) steps i-iii are repeated with transfer to right half of assay plate; (v) steps i-iv are repeated with each compound/assay plate until all plates are completed.
10 μl/well Start Mix is added and incubated at room temperature on shaker for 2 minutes (1 hour total reaction time).
Stop Solution in Dilution Buffer: 120 mM EDTA
Antibody Mix in Dilution Buffer: 4.86 μg/ml DyLight 647 Streptavidin (Pierce 21824); 1 μg/ml Lance Eu-Anti-Phosphotyrosine (PerkinElmer AD0069).
5 μl/well[…] is added and incubated at room temperature on shaker for 2 minutes.
[…] Antibody Mix is added and Incubated at room temperature on shaker for 2 minutes (4 hours to overnight total time).
Plates are read at 665 nm and 620 nm emission on Analyst GT protocol HTRF_SP_A or EnVision protocol Steve's TR-FRET.

mTOR = biological target: T3, mTOR (Homo sapiens, UniProt P42345); assay: mTOR HTR-FRET Assay; conditions: HTR-FRET screening assay, GST-p70S6 kinase fragment substrate
T3 construct: Dilute TOR fraction 1:14 in “Simple TOR Buffer”
Protocol: The following is an example of an assay that can be used to determine the mTOR inhibitory activity of a test compound. Reagents are prepared as follows:
“Simple TOR buffer” (used to dilute high glycerol TOR fraction): 10 mM Tris pH 7.4, 100 mM NaCl, 0.1% Tween-20, 1 mM DTT (from 1M stock frozen at −20° C. just prior to use). For convenience a large quantity of “Simple TOR buffer” w/o DTT can be stored at 4° C. It can be brought to room temperature and DTT added just prior to dilution of TOR fraction.
5×KB/5×Mn/5×ATP solution (used to dilute substrate GST-p70S6kin 81 a.a. just prior to use) (40 ml screen quantity shown):
Enzyme solution: Dilute TOR fraction 1:14 in “Simple TOR Buffer”. For current lot that is 640 μg/ml TOR fraction diluted 14× to yield 45.7 μg/ml TOR in buffer (i.e. 7.85 ml TOR pooled fraction+102.1 ml Simple TOR buffer=110 ml 14× diluted TOR fraction). Each Enzyme Lot must be QC'd prior to assay.
Substrate solution: This may be prepared just prior to assay if preferred. Dilute 5.3 mg/ml GST-p70S6kinase fragment stock to 3.5 μg/ml (97 nM) working stock in 5×KB/5×Mn/5×ATP solution (i.e. 26.41 μL (5.3 mg/ml) GST-p70S6+40 ml 5×KB/5×Mn/5×ATP=40 ml 3.5 μg/ml (97 nM)).
Assay Buffer (for dilution of Antibodies used in Antibody Detection Reagent):
Antibody Detection Reagent (this reagent should be made just prior to addition to Assay Plates):
Using PlateTrak program (Screen) or Matrix Pipettor (SAR), 19.5 μL of diluted TOR fraction is added to assay plate in all test, reference or positive control wells. 19.5 μL of “Simple TOR buffer” is added to all negative control wells. If treating multiple plates with the same compounds, can increase volume of enzyme to multiples of 19.5 μL in a tall 384 well polypropylene plate.
Using EP3, 0.5 μl of test, reference or control DMSO is added to each well with mixing. Plates are incubated for 30 minutes at room temperature.
Using PlateTrak program (Screen) or Matrix Pipettor (SAR) 5 μL of 5×KB/5×Mn/5×ATP/5× substrate solution is added to each well of the assay plate to start the reaction. The solutions are mixed well and incubated for 2 hours at room temperature.
Using PlateTrak program (Screen) or Matrix Pipettor (SAR) 5 μL of 60 mM EDTA is added to stop the reaction. The solutions are mixed well and allowed to sit for 15-20 minutes before the next step.
Using PlateTrak program (Screen) or Matrix Pipettor (SAR) 10 μl of Antibody Detection Reagent is added. The solutions are mixes well and incubated for 5 hours to O/N to allow antibodies to form complexes with phosphorylated substrate.
Plates are read on AnalystHT using protocol Multi-Method protocol.

T1 sequence (Q04759 whole entry): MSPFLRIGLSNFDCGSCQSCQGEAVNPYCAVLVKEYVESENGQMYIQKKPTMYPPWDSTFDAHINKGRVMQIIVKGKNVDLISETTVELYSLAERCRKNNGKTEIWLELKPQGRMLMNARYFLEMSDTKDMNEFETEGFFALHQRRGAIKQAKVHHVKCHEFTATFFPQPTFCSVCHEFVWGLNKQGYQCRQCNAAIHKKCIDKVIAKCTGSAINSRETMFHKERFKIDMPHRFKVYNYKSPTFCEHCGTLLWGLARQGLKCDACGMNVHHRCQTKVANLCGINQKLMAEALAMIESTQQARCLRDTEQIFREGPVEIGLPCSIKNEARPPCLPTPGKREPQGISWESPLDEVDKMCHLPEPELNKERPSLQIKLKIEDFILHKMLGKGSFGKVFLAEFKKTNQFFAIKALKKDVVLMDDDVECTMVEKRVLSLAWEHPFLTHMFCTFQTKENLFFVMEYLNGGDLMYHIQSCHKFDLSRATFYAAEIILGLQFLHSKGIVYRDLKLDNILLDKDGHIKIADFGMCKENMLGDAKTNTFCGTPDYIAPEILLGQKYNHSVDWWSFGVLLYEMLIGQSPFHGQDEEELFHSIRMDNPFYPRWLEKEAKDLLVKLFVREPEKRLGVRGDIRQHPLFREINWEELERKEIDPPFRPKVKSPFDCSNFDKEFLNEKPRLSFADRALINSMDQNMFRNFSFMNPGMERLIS

Row | Compound | IC50 (PKCθ) | IC50 (Syk) | IC50 (mTOR)
1 | COc1ccc(C(C)C)cc1-c1cnc2[nH]c(=O)n([C@@H](CO)C(C)C)c2n1 [Compound 13, (R)-1-(1-hydroxy-3-methylbutan-2-yl)-6-(5-isopropyl-2-methoxyphenyl)-1H-imidazo[4,5-b]pyrazin-2(3H)-one] | 10.1 to 20 µM | 5.1 to 10 µM | –
2 | COc1ccc(C(C)C)cc1-c1cnc2[nH]c(=O)n([C@H](CO)C(C)C)c2n1 [Compound 8, (S)-1-(1-hydroxy-3-methylbutan-2-yl)-6-(5-isopropyl-2-methoxyphenyl)-1H-imidazo[4,5-b]pyrazin-2(3H)-one] | 0.1 to 5 µM | 0.1 to 5 µM | –
3 | COc1ccc(C(C)C)cc1-c1cnc2[nH]c(=O)n([C@@H](C)C(C)C)c2n1 [Compound 30, (S)-6-(5-isopropyl-2-methoxyphenyl)-1-(3-methylbutan-2-yl)-1H-imidazo[4,5-b]pyrazin-2(3H)-one] | 20.1 to 30 µM | 0.1 to 5 µM | –
4 | COc1ccc(C(C)C)cc1-c1cnc2[nH]c(=O)n([C@H](C)C(C)C)c2n1 [Compound 28, (R)-6-(5-isopropyl-2-methoxyphenyl)-1-(3-methylbutan-2-yl)-1H-imidazo[4,5-b]pyrazin-2(3H)-one] | 0.1 to 5 µM | 0.1 to 5 µM | –
5 | CC(C)[C@@H](CO)n1c(=O)[nH]c2ncc(-c3ccccc3)nc21 [Compound 1, (S)-1-(1-hydroxy-3-methylbutan-2-yl)-6-phenyl-1H-imidazo[4,5-b]pyrazin-2(3H)-one] | > 30 µM | > 30 µM | –
6 | CC(C)[C@@H](CO)n1c(=O)[nH]c2ncc(-c3cccc4ncccc34)nc21 [Compound 11, (S)-1-(1-hydroxy-3-methylbutan-2-yl)-6-(quinolin-5-yl)-1H-imidazo[4,5-b]pyrazin-2(3H)-one] | 20.1 to 30 µM | > 30 µM | > 30 µM
7 | CC(c1ccccc1)n1c(=O)[nH]c2ncc(-c3ccc(S(C)(=O)=O)cc3)nc21 (stereo not drawn) [Compound 85, 6-(4-(methylsulfonyl)phenyl)-1-(1-phenylethyl)-1H-imidazo[4,5-b]pyrazin-2(3H)-one] | > 30 µM | – | 5.1 to 10 µM
